The values below come from patent US10711004B2 (Genentech, Inc., priority 2018, dated 2020).

Usually IC50 stands for the midpoint of a concentration-inhibition curve.

Each structure is given as a SMILES string. Read-outs that look alike come from different tables or passages of the source.

This assay deals with human TRPA1 channel (Homo sapiens (Human), UniProt O75762). In words: hTRPA1 CHO Ca2+ FLIPR Tetra assay, block of cinnamaldehyde induced calcium influx. Type of assay: cell-based. As to conditions: CHO cells expressing TRPA1, Hill coefficient fixed to 1.5. The procedure, abridged:
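IC50 values come from fixed-Hill fits of inhibition of cinnamaldehyde-induced (about EC50 level) calcium influx measured by FLIPR Tetra. Before agonist, TRPA1-expressing CHO cells loaded with calcium indicator were exposed to compound for 10 or 90 min at room temperature in HEPES-buffered HBSS, pH 7.4, with 0.02% BSA.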

The mark [1] stands for this setting: read-out: hTRPA1 IC50 (90 min), compounds incubated 90 minutes at room temperature before cinnamaldehyde agonist.
Where [2] appears, read: read-out: hTRPA1 IC50 (10 min), compounds incubated 10 minutes at room temperature before cinnamaldehyde agonist.

Chain of human TRPA1 channel (O75762 whole entry): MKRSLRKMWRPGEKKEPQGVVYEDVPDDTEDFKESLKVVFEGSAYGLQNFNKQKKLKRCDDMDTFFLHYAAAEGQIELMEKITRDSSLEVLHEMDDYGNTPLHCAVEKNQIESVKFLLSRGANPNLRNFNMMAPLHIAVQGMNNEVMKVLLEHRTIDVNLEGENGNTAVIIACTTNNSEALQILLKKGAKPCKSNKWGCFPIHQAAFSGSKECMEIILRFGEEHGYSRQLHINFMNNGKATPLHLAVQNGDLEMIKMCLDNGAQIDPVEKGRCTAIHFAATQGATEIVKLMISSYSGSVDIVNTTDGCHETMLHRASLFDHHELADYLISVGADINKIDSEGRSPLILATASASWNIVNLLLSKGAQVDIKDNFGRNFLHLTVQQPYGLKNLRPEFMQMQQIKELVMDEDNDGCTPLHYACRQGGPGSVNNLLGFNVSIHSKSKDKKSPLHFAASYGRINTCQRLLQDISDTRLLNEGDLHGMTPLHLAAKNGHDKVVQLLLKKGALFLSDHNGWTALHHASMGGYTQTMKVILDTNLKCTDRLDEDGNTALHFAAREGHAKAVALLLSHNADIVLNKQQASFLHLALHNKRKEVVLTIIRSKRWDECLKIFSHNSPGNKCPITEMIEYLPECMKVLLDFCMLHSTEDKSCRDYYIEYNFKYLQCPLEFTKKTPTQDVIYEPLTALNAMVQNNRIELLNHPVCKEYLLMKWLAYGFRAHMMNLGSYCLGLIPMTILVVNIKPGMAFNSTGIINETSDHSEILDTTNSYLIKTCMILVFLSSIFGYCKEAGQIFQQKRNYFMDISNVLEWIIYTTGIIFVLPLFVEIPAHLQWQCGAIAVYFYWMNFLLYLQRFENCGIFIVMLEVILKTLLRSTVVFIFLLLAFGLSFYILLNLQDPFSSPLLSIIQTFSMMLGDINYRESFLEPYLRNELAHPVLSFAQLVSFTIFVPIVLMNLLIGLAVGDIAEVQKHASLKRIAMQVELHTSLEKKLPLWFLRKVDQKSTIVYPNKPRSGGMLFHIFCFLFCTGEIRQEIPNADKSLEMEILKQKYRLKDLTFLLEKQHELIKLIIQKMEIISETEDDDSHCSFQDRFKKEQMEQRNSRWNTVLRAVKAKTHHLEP

In the case of `Cc1cncc2ncn(Cc3nc([C@H]4C[C@](O)(c5ccc6ccccc6c5)C4)no3)c(=O)c12` [Example Compound 232, 3-((3-((1s,3s)-3-hydroxy-3-(naphthalen-2-yl)cyclobutyl)-1,2,4-oxadiazol-5-yl)methyl)-5-methylpyrido[3,4-d]pyrimidin-4(3H)-one], the IC50 under setting [1] worked out at 4.8 nM.
Regarding `O=c1c2cccnc2cnn1Cc1nc([C@H]2C[C@](F)(c3ccc(Cl)cc3)C2)no1` [Example Compound 157, 6-((3-((1s,3s)-3-(4-chlorophenyl)-3-fluorocyclobutyl)-1,2,4-oxadiazol-5-yl)methyl)pyrido[2,3-d]pyridazin-5(6H)-one], the IC50 under setting [2] was 98.9 nM and the IC50 under setting [1] was found to be 59 nM.
For `Cn1cnc2ncn(Cc3nc([C@H]4C[C@H](c5ccc6ccccc6c5)C4)no3)c(=O)c21` [Example Compound 231, 7-methyl-1-((3-((1r,3r)-3-(naphthalen-2-yl)cyclobutyl)-1,2,4-oxadiazol-5-yl)methyl)-1,7-dihydro-6H-purin-6-one], the IC50 under setting [2] is 57.3 nM.
For the compound `Cn1cnc2ncn(Cc3nc([C@H]4[C@@H]5C=C(c6cc(F)cc(F)c6)C[C@@H]54)no3)c(=O)c21` [Example Compound 270, 7-methyl-1-[[3-[(1S,5S,6R)-3-(3,5-difluorophenyl)-6-bicyclo[3.1.0]hex-2-enyl]-1,2,4-oxadiazol-5-yl]methyl]purin-6-one], the concentration for half-maximal inhibition (IC50) is 13 nM under setting [2] and 2.4 nM under setting [1].
On the same counts, the results for `Cn1cnc2ncn(Cc3nc([C@H]4[C@@H]5C=C(c6ccccn6)C[C@@H]54)no3)c(=O)c21` [Example Compound 129, 7-methyl-1-((3-((1S,5S,6R)-3-(pyridin-2-yl)bicyclo[3.1.0]hex-2-en-6-yl)-1,2,4-oxadiazol-5-yl)methyl)-1,7-dihydro-6H-purin-6-one] are 209 nM and 210 nM.
On the same counts, the results for `Cn1cnc2ncn(Cc3nc([C@H]4[C@@H]5CN(c6cccc(C#N)n6)C[C@@H]54)no3)c(=O)c21` [Example Compound 171, 6-((1R,5S,6r)-6-(5-((7-methyl-6-oxo-6,7-dihydro-1H-purin-1-yl)methyl)-1,2,4-oxadiazol-3-yl)-3-azabicyclo[3.1.0]hexan-3-yl)picolinonitrile] are 271 nM and 89 nM.
Consider `Cn1cnc2ncn(Cc3nc([C@H]4C[C@](F)(c5ccc(F)cc5)C4)no3)c(=O)c21` [Example Compound 206, 1-((3-((1s,3s)-3-fluoro-3-(4-fluorophenyl)cyclobutyl)-1,2,4-oxadiazol-5-yl)methyl)-7-methyl-1,7-dihydro-6H-purin-6-one], for which the IC50 under setting [2] turned out to be 313 nM.
Still for that read-out and setting: the value for `Cn1cnc2ncn(Cc3nc([C@H]4C[C@H](Oc5cccc(F)c5)C4)no3)c(=O)c21` [Example Compound 176, 1-((3-((1r,3r)-3-(3-fluorophenoxy)cyclobutyl)-1,2,4-oxadiazol-5-yl)methyl)-7-methyl-1,7-dihydro-6H-purin-6-one] was 24.3 nM.
Turning to `Cn1cnc2ncn(Cc3nc([C@H]4C[C@H](C(F)(F)c5cccc(F)c5)C4)no3)c(=O)c21` (stereo in doubt) [Example Compound 248, 1-[[3-[trans-3-[difluoro-(3-fluorophenyl)methyl]cyclobutyl]-1,2,4-oxadiazol-5-yl]methyl]-7-methyl-purin-6-one], the IC50 is 11.1 nM under setting [2] and 5.5 nM under setting [1].
On the same counts, the results for `N#Cc1ccc2c(=O)n(Cc3nc([C@@H]4[C@H]5C=C(c6ccccc6)C[C@H]54)no3)cnc2n1` [Example Compound 266, 4-oxo-3-[[3-[(1R,5R,6S)-3-phenyl-6-bicyclo[3.1.0]hex-2-enyl]-1,2,4-oxadiazol-5-yl]methyl]pyrido[2,3-d]pyrimidine-7-carbonitrile] are 54.6 nM and 39 nM.
On the same counts, the results for `Cn1cnc2ncn(Cc3nc([C@H]4[C@@H]5CN(c6cc(Cl)ccn6)C[C@@H]54)no3)c(=O)c21` [Example Compound 212, 1-((3-((1R,5S,6r)-3-(4-chloropyridin-2-yl)-3-azabicyclo[3.1.0]hexan-6-yl)-1,2,4-oxadiazol-5-yl)methyl)-7-methyl-1,7-dihydro-6H-purin-6-one] are 84.7 nM and 25 nM.
On the same counts, the results for `Cn1cnc2ncn(Cc3nc([C@H]4[C@@H]5CN(c6cncc(C(F)(F)F)c6)C[C@@H]54)no3)c(=O)c21` [Example Compound 145, 7-methyl-1-((3-((1R,5S,6r)-3-(5-(trifluoromethyl)pyridin-3-yl)-3-azabicyclo[3.1.0]hexan-6-yl)-1,2,4-oxadiazol-5-yl)methyl)-1,7-dihydro-6H-purin-6-one] are 797 nM and 480 nM.
For the compound `Cn1cnc2ncn(Cc3nc([C@@H]4[C@H]5C=C(c6ccccc6)[C@@H](O)[C@H]54)no3)c(=O)c21` [Example Compound 250, 7-methyl-1-[[3-[(1R,4S,5R,6R)-4-hydroxy-3-phenyl-6-bicyclo[3.1.0]hex-2-enyl]-1,2,4-oxadiazol-5-yl]methyl]purin-6-one], the IC50 was determined as 312 nM under setting [2] and 40 nM under setting [1].
Consider `Cn1cnc2ncn(Cc3nc([C@H]4[C@@H]5CN(c6cc(Cl)c(F)cn6)C[C@@H]54)no3)c(=O)c21` [Example Compound 170, 1-((3-((1R,5S,6r)-3-(4-chloro-5-fluoropyridin-2-yl)-3-azabicyclo[3.1.0]hexan-6-yl)-1,2,4-oxadiazol-5-yl)methyl)-7-methyl-1,7-dihydro-6H-purin-6-one], for which the IC50 reads like this: under setting [2], 233 nM; under setting [1], 130 nM.
Regarding `Cn1cnc2ncn(Cc3nc([C@@H]4[C@H]5C=C(c6ccc(F)cn6)C[C@H]54)no3)c(=O)c21` [Example Compound 110, 1-((3-((1R,5R,6S)-3-(5-fluoropyridin-2-yl)bicyclo[3.1.0]hex-2-en-6-yl)-1,2,4-oxadiazol-5-yl)methyl)-7-methyl-1,7-dihydro-6H-purin-6-one], the IC50 is, setting by setting: under setting [2], 64 nM; under setting [1], 27 nM.
For the compound `Cc1ccnc2ncn(Cc3nc([C@H]4C[C@H](c5ccc(OC(F)(F)F)cc5)C4)no3)c(=O)c12`, the 50% inhibitory concentration (IC50) under setting [2] came out at 63.8 nM.
With `Cc1noc2ncn(Cc3nc([C@H]4[C@@H]5CN(c6cc(Cl)ccn6)C[C@@H]54)no3)c(=O)c12` [Example Compound 104, 5-((3-((1R,5S,6r)-3-(4-chloropyridin-2-yl)-3-azabicyclo[3.1.0]hexan-6-yl)-1,2,4-oxadiazol-5-yl)methyl)-3-methylisoxazolo[5,4-d]pyrimidin-4(5H)-one], the IC50 runs as follows: under setting [2], 43 nM; under setting [1], 30 nM.
Regarding `Cc1ccnc2ncn(Cc3nc([C@H]4[C@@H]5CN(c6ccccc6)C[C@@H]54)no3)c(=O)c12`, the IC50 under setting [2] worked out at 39 nM.
Consider `Cc1cnn2ncn(Cc3nc([C@H]4[C@@H]5CN(c6cc(Cl)ccn6)C[C@@H]54)no3)c(=O)c12` [Example Compound 138, 3-((3-((1R,5S,6r)-3-(4-chloropyridin-2-yl)-3-azabicyclo[3.1.0]hexan-6-yl)-1,2,4-oxadiazol-5-yl)methyl)-5-methylpyrazolo[5,1-f][1,2,4]triazin-4(3H)-one], for which the IC50 by setting is: under setting [2], 15.1 nM; under setting [1], 5.5 nM.
`Cn1cnc2ncn(Cc3nc([C@H]4[C@@H]5CN(c6cccc(OC(F)F)c6)C[C@@H]54)no3)c(=O)c21` [Example Compound 8, 7-methyl-1-[[3-[(1R,5S,6 r)-3-[3-(difluoromethoxy)phenyl]-3-azabicyclo[3.1.0]hexan-6-yl]-1,2,4-oxadiazol-5-yl]methyl] purin-6-one]: the IC50 under setting [2] turned out to be 105 nM.
As to `Cn1cnc2ncn(Cc3nc([C@H]4[C@@H]5C=C(c6ccc(Cl)cc6)C[C@@H]54)no3)c(=O)c21` [Example Compound 141, 1-((3-((1S,5S,6R)-3-(4-chlorophenyl)bicyclo[3.1.0]hex-2-en-6-yl)-1,2,4-oxadiazol-5-yl)methyl)-7-methyl-1,7-dihydro-6H-purin-6-one], the 50% inhibitory concentration (IC50) under setting [2] is 9.78 nM and the IC50 under setting [1] was 5.1 nM.
Take `Cn1c(=O)ccc2ncn(Cc3nc([C@H]4[C@@H]5CN(c6cccc(Cl)c6)C[C@@H]54)no3)c(=O)c21` [Example Compound 173, 3-((3-((1R,5S,6r)-3-(3-chlorophenyl)-3-azabicyclo[3.1.0]hexan-6-yl)-1,2,4-oxadiazol-5-yl)methyl)-5-methyl-3,5-dihydropyrido[3,2-d]pyrimidine-4,6-dione]: under setting [2], the IC50 is 3.97 nM.
For the compound `Cn1cnc2ncn(Cc3nc([C@@H]4[C@H]5C=C(c6ccc(C#N)c(F)c6)C[C@H]54)no3)c(=O)c21` [Example Compound 283, 2-fluoro-4-[(1R,5R,6S)-6-[5-[(7-methyl-6-oxo-purin-1-yl)methyl]-1,2,4-oxadiazol-3-yl]-3-bicyclo[3.1.0]hex-2-enyl]benzonitrile], the IC50 by setting is: under setting [2], 19.6 nM; under setting [1], 5.3 nM.
Take `Cn1cnc2ncn(Cc3nc([C@H]4[C@@H]5CN(c6ccccc6Cl)C[C@@H]54)no3)c(=O)c21`: the IC50 under setting [2] turned out to be 77.3 nM.
For `Cn1cnc2ncn(Cc3nc([C@@H]4[C@H]5C=C(c6cc(Cl)ccn6)C[C@H]54)no3)c(=O)c21` [Example Compound 159, 1-((3-((1R,5R,6S)-3-(4-chloropyridin-2-yl)bicyclo[3.1.0]hex-2-en-6-yl)-1,2,4-oxadiazol-5-yl)methyl)-7-methyl-1,7-dihydro-6H-purin-6-one], the IC50 runs as follows: under setting [2], 119 nM; under setting [1], 68 nM.
`Cn1cnc2ncn(Cc3nc([C@H]4[C@@H]5CN(c6ccc7ncccc7c6)C[C@@H]54)no3)c(=O)c21`: the IC50 under setting [2] is 166 nM.
For `Cn1cnc2ncn(Cc3nc([C@@H]4[C@H]5C=C(c6ccc7c(cnn7C)c6)C[C@H]54)no3)c(=O)c21` [Example Compound 264, 7-methyl-1-[[3-[(1R,5R,6S)-3-(1-methylindazol-5-yl)-6-bicyclo[3.1.0]hex-2-enyl]-1,2,4-oxadiazol-5-yl]methyl]purin-6-one], the IC50 by setting is: under setting [2], 29 nM; under setting [1], 14 nM.
